According to ChEMBL document CHEMBL3886816, “Substituted 5-(3,5-dimethylisoxazol-4-yl)indoline-2-ones” (2016):

How the values were obtained:
[1] = target: Bromodomain-containing protein 4 (Homo sapiens, UniProt O60885); assay: (§1) Time-Resolved Fluorescence Resonance Energy Transfer (TR-FRET) Assay: The assay was carried out in binding mixtures of the bromodomain protein, 0-10 μM compounds and tetra-acetylated histone peptide (SGRGAC.KGGAC.KGLGAC.KGGAAC.[…]-biotin) in buffer containing 25 mM HEPES pH 7.5, 100 mM NaCl, 0.1% BSA, 0.05% CHAPS, and detection reagents. […] Upon further incubation for 1 hr, the TR-FRET signals were recorded on a BMG PHERAstar FS instrument.
[2] = target: Bromodomain testis-specific protein (Homo sapiens, UniProt Q58F21); assay: as §1
[3] = target: Bromodomain-containing protein 2 (Homo sapiens, UniProt P25440); assay: as §1
[4] = target: Bromodomain-containing protein 3 (Homo sapiens, UniProt Q15059); assay: as §1
Chain of Bromodomain-containing protein 3 (Q15059 whole entry): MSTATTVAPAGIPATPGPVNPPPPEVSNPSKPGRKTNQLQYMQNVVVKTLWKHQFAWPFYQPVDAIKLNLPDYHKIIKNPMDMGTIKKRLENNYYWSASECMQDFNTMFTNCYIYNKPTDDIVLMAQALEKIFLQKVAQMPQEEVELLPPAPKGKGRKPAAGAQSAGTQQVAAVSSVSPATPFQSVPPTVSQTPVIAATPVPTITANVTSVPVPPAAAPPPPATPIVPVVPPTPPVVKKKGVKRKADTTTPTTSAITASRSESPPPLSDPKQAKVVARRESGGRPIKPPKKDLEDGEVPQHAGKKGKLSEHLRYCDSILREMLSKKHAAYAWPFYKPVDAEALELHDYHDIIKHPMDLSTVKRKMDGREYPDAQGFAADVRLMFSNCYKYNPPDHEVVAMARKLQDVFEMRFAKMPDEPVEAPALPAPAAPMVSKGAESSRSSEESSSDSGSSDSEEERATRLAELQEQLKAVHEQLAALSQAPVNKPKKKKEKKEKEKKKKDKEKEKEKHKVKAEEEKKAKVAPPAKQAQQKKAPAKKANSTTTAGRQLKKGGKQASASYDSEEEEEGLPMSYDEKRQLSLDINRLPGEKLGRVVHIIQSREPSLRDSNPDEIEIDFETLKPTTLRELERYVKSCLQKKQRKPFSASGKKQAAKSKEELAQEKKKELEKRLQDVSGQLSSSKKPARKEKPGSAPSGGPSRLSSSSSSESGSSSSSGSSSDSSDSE

Chain of Bromodomain-containing protein 2 (P25440 whole entry): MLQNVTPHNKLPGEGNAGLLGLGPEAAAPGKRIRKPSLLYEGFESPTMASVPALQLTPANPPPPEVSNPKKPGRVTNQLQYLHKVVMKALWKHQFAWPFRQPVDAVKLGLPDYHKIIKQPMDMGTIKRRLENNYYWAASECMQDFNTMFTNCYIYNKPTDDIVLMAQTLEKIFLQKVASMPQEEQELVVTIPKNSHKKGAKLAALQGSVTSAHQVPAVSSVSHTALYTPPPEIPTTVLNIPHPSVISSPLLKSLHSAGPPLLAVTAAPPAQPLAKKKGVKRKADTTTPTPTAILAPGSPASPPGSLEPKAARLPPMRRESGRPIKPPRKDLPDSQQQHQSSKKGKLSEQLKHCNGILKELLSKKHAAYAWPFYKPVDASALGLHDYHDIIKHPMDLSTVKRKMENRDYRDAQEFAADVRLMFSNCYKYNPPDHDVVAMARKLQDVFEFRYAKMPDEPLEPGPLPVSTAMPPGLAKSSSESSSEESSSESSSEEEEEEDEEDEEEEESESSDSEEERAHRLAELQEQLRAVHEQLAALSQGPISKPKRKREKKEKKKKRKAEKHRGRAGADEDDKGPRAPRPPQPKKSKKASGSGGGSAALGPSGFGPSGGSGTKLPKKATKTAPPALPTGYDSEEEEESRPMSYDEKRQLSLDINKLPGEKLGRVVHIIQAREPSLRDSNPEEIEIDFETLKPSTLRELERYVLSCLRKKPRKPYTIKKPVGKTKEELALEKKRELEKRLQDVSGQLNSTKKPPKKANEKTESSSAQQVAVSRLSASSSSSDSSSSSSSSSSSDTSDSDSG

Compound: C=CCCCC1(O)C(=O)Nc2ccc(-c3c(C)noc3C)cc21 (stereo not given)
- IC50 [1]: 540 nM

Compound: Cc1noc(C)c1-c1ccc2c(c1)C(OCCO)(C1CCCCC1)C(=O)N2 (stereo not given)
- IC50 [1]: 82 nM

Compound: Cc1noc(C)c1-c1ccc2c(c1)C(C1CCCC1)(N1CCN(C)CC1)C(=O)N2 (stereo not given)
- IC50 [1]: 180 nM

Compound: Cc1noc(C)c1-c1ccc2c(c1)C(C1CCCCC1)(N1CCN(C)CC1)C(=O)N2 (stereo not given)
- IC50 [1]: 110 nM

Compound: Cc1noc(C)c1-c1ccc2c(c1)C(N)(c1ccccc1)C(=O)N2 (single isomer, unassigned)
- IC50 [2]: 95 nM
- IC50 [3]: 55 nM
- IC50 [4]: 35 nM
- IC50 [1]: 150 nM

Compound: C=CCCC1(O)C(=O)Nc2ccc(-c3c(C)noc3C)cc21 (stereo not given)
- IC50 [1]: 430 nM

Compound: Cc1noc(C)c1-c1ccc2c(c1)C(O)(C1CCCCCC1)C(=O)N2 (stereo not given)
- IC50 [1]: 98 nM
